Here are results for 1 compound from patent US10336732B2, “1-heterocyclyl isochromanyl compounds and analogs for treating CNS disorders” (Sunovion Pharmaceuticals Inc., priority 2015, dated 2019).

This experiment concerns the target T1, 5-HT5a (Homo sapiens, UniProt P47898).
T1 construct: expressed in transfected cells; host or cells: HEK-293 cells
Kind of experiment: In vitro radioligand binding assay, 5-HT5a, [3H]LSD. The note with it: human recombinant (HEK-293 cells). The procedure:
Certain compounds were tested by in vitro binding assays using standard procedures. […] These receptors and assays are well known to those skilled in the art, as exemplified by the following: Abramovitz, M. et al. (2000), Biochem. Biophys. Acta., 1483: 285-293 (EP4, IP (PGI2)); Aharony, D. et al. (1993), Mol. Pharmacol., 44: 356-363 (NK2); Ardati, A. et al. (1997), Mol. Pharmacol., 51: 816-824 (NOP (ORL1)); Bignon, E. et al. (1999), J. Pharmacol. Exp. Ther. 289: 742-751 (CCK1 (CCKA)); Bloomquist, B. T. et al. (1998), Biochem. Biophys. Res. Commun., 243: 474-479 (GAL2); Brockhaus, M. et al. (1990), Proc. Natl. Acad. Sci. U.S.A., 87: 3127-3131 (TNF-α); Brown, G. B. (1986), J. Neurosci., 6: 2064-2070 (Na+ channel (site 2)); Buchan, K. W. et al. (1994), Brit. J. Pharmacol., 112: 1251-1257 (ETA); Cesura, A. M. et al. (1990), Mol. Pharmacol., 37: 358-366 (MAO-A); Choi, D. S. et al. (1994), FEBS Lett., 352: 393-399 (5-HT2B); Clark, A. F. et al. (1996), Invest. Ophtalmol. Vis. […]

T1 sequence (P47898 whole entry): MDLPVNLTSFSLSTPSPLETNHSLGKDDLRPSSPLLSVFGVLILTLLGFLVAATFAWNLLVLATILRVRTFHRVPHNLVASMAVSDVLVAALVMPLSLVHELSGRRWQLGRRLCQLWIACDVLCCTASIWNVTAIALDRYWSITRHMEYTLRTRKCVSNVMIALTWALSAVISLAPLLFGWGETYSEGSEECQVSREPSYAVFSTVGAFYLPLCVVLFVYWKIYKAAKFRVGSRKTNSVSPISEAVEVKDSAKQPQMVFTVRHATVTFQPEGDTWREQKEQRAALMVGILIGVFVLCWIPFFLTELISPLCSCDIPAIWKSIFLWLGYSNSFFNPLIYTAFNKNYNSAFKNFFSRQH

On to `Fc1cccc2c1[C@H]([C@@H]1CCN1)OCC2` [Compound I-83, (S)-2-((R)-8-fluoroisochroman-1-yl)azetidine], for which the “5HT5a percent inhibition of specific binding” value is 58%.
